Experimental data: patent publication US11014917B2, “5-fluoro-c-(aryl or heterocyclyl)-glycoside derivatives useful as dual SGLT1 / SGLT2 modulators” (Janssen Pharmaceutica NV, priority 2017, dated 2021)

How the values were obtained:
human SGLT1 = target: T1, human SGLT1 (Homo sapiens, UniProt P13866); experiment: SGLT1 assay: Na-dependent 14C-AMG uptake in CHO-K1 cells stably expressing human SGLT1; format: cell-based; settings: for IC50: average if tested more than once; for inhibition at 0.3 µM / SGLT1 %-inhibition: @ 0.3 μM
T1 construct: expressed in transfected cells
T1 sequence (P13866 1-664): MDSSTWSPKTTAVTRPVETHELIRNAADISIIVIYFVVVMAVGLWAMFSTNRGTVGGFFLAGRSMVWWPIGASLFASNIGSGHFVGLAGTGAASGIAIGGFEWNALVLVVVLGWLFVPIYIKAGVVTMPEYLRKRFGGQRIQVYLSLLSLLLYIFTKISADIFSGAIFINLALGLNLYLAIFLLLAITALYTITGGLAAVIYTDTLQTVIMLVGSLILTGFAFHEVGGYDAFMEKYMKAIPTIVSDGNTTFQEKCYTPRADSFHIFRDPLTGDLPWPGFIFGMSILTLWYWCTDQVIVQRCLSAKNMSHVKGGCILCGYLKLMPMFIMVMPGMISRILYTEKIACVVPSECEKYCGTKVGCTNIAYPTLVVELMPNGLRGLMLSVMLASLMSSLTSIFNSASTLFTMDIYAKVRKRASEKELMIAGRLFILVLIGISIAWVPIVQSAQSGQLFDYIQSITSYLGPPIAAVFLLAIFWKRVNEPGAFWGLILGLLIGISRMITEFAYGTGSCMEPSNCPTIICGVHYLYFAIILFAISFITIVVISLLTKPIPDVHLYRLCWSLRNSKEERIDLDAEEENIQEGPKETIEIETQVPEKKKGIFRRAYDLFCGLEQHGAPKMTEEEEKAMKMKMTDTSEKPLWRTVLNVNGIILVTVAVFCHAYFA
Outline: (§1)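 Stable CHO-K1 lines were pretreated 24 h with 10 mM Na-butyrate, then compound (0.001–10 μM) for 10 min in Na+ buffer (137 mM NaCl, pH 7.4). Uptake of 14C-AMG (500 μM final, 0.07 μCi/well) over 2 h at 37° C measured by scintillation; %-inhibition or IC50.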

human SGLT2 = target: T2, human SGLT2 (Homo sapiens, UniProt P31639); experiment: SGLT2 assay: Na-dependent 14C-AMG uptake in CHO-K1 cells stably expressing human SGLT2; format: cell-based; settings: for IC50: average if tested more than once; for inhibition at 0.3 µM / SGLT2 %-inhibition: @ 0.3 μM
T2 construct: expressed in transfected cells
T2 sequence (P31639 1-672): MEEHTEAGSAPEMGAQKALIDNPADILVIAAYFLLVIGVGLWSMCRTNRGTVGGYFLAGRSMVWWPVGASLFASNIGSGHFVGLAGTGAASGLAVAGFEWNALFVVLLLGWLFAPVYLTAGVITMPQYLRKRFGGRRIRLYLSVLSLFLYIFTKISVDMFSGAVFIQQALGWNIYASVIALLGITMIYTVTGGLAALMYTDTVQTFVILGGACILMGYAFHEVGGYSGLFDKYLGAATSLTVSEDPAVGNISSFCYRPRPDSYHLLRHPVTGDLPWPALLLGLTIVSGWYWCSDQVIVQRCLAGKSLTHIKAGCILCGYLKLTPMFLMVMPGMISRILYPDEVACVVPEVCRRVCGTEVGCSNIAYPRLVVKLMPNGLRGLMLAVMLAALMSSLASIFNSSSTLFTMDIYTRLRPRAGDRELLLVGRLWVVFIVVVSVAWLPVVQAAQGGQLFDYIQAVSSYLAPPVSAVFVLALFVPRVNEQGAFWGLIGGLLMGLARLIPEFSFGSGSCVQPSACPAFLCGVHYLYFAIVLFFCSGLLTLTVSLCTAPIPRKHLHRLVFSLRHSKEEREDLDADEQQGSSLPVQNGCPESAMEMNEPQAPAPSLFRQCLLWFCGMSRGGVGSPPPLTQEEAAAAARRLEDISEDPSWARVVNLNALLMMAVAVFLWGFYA
Outline: as §1

| IC50 (human SGLT1) [nM] | IC50 (human SGLT2) [nM] | SGLT1 %-inhibition (human SGLT1) [% @ 0.3 μM] | SGLT2 %-inhibition (human SGLT2) [% @ 0.3 μM] | Compound | other results |
| --- | --- | --- | --- | --- | --- |
| 163 | 8 |  |  | COc1c([C@@H]2O[C@H](CO)[C@@H](F)[C@H](O)[C@H]2O)cc(Cc2ccc3c(c2)SCCO3)c2c1CCO2 [Compound 107, (2S,3R,4R,5S,6R)-2-(7-((2,3-dihydrobenzo[b][1,4]oxathiin-6-yl)methyl)-4-methoxy-2,3-dihydrobenzofuran-5-yl)-5-fluoro-6-(hydroxymethyl)-tetrahydro-2H-pyran-3,4-diol] |  |
| 326 | 75 |  |  | COc1c([C@@H]2O[C@H](CO)[C@@H](F)[C@H](O)[C@H]2O)cc(Cc2ccc3c(c2)N(C)CCC3)c2c1CCO2 [Compound 108, (2S,3R,4R,5S,6R)-5-fluoro-6-(hydroxymethyl)-2-(4-methoxy-7-((1-methyl-1,2,3,4-tetrahydroquinolin-7-yl)methyl)-2,3-dihydrobenzofuran-5-yl)-tetrahydro-2H-pyran-3,4-diol] |  |
|  |  |  |  | Cc1ccc([C@@H]2O[C@H](CO)[C@@H](F)[C@H](O)[C@H]2O)cc1Cc1cc2c(s1)CCN(C(=O)c1nccs1)C2 [Compound 109, (2-(5-((2S,3R,4R,5S,6R)-5-fluoro-3,4-dihydroxy-6-(hydroxymethyl)-tetrahydro-2H-pyran-2-yl)-2-methylbenzyl)-6,7-dihydrothieno[3,2-c]pyridin-5(4H)-yl)(thiazol-2-yl)methanone] | inhibition at 0.3 µM (human SGLT1): 39.5%; inhibition at 0.3 µM (human SGLT2): 72.7% |
| 1420 | 5 |  |  | COc1cc(C)c(Cc2cc3c(s2)CCN(C#N)C3)cc1[C@@H]1O[C@H](CO)[C@@H](F)[C@H](O)[C@H]1O [Compound 110, 2-(5-((2S,3R,4R,5S,6R)-5-fluoro-3,4-dihydroxy-6-(hydroxymethyl)-tetrahydro-2H-pyran-2-yl)-4-methoxy-2-methylbenzyl)-6,7-dihydrothieno[3,2-c]pyridine-5(4H)-carbonitrile] |  |
| 101 | 19 |  |  | Cc1cnc(N2CCc3sc(Cc4cc([C@@H]5O[C@H](CO)[C@@H](F)[C@H](O)[C@H]5O)c(O)cc4C)cc3C2)s1 [Compound 111] |  |
| 376 | 23 |  |  | COc1cc(C)c(Cc2cc3c(s2)CCN(C(=O)c2nccs2)C3)cc1[C@@H]1O[C@H](CO)[C@@H](F)[C@H](O)[C@H]1O [Compound 112, (2-(5-((2S,3R,4R,5S,6R)-5-fluoro-3,4-dihydroxy-6-(hydroxymethyl)-tetrahydro-2H-pyran-2-yl)-4-methoxy-2-methylbenzyl)-6,7-dihydrothieno[3,2-c]pyridin-5(4H)-yl)(thiazol-2-yl)methanone] |  |
|  |  | 21.0 | 53.9 | Cc1cnc(N2CCc3sc(Cc4cc([C@@H]5O[C@H](CO)[C@@H](F)[C@H](O)[C@H]5O)ccc4C)cc3C2)s1 [Compound 113] |  |
| 109 | 5 |  |  | N#CN1CCc2sc(Cc3cc([C@@H]4O[C@H](CO)[C@@H](F)[C@H](O)[C@H]4O)c(O)cc3Cl)cc2C1 [Compound 114] |  |
|  |  | 35.6 | 79.3 | CCc1cc(OC)c([C@@H]2O[C@H](CO)[C@@H](F)[C@H](O)[C@H]2O)cc1Cc1cc2c(s1)CCN(C#N)C2 [Compound 115] |  |
|  |  | 11.5 | 78.0 | Cc1ccc([C@@H]2O[C@H](CO)[C@@H](F)[C@H](O)[C@H]2O)cc1Cc1cc2c(s1)CCCC2=O [Compound 116] |  |
|  |  | 44.3 | 69.9 | Cc1cnc(N2CCc3sc(Cc4cc([C@@H]5O[C@H](CO)[C@@H](F)[C@H](O)[C@H]5O)c(O)cc4C)cc3C2)s1 [Compound 117] |  |
| 50 | 2 |  |  | CCc1cc(O)c([C@@H]2O[C@H](CO)[C@@H](F)[C@H](O)[C@H]2O)cc1Cc1cc2c(s1)CCN(C#N)C2 [Compound 118] |  |
| 156 | 11 |  |  | Cc1cc(O)c([C@@H]2O[C@H](CO)[C@@H](F)[C@H](O)[C@H]2O)cc1Cc1cc2c(s1)CCCC2=O [Compound 119] |  |
|  |  | 6.6 | 54.7 | COc1ccc([C@@H]2O[C@H](CO)[C@@H](F)[C@H](O)[C@H]2O)cc1Cc1cc2c(s1)CCN(C#N)C2 [Compound 120] |  |
|  |  | 20.5 | 79.8 | N#CN1CCc2sc(Cc3cc([C@@H]4O[C@H](CO)[C@@H](F)[C@H](O)[C@H]4O)ccc3Cl)cc2C1 [Compound 121] |  |
|  |  | 31.7 | 63.6 | Cc1cnc(N2CCc3sc(Cc4cc([C@@H]5O[C@H](CO)[C@@H](F)[C@H](O)[C@H]5O)ccc4C)cc3C2)s1 [Compound 122] |  |
| 1360 | 100 |  |  | COc1cc(C)c(Cc2cc3c(s2)CCN(c2ncc(C)s2)C3)cc1[C@@H]1O[C@H](CO)[C@@H](F)[C@H](O)[C@H]1O [Compound 123] |  |
| 698 | 147 |  |  | OC[C@H]1O[C@@H](c2cc3c(c(Cc4ccc5c(c4)SCCO5)c2)OCC3)[C@H](O)[C@@H](O)[C@@H]1F [Compound 124] |  |
| 227 | 17 |  |  | OC[C@H]1O[C@@H](c2cc(Cc3ccc4c(c3)CCCO4)c(Cl)c3c2OCC3)[C@H](O)[C@@H](O)[C@@H]1F [Compound 125, (2S,3R,4R,5S,6R)-2-(4-chloro-5-(chroman-6-ylmethyl)-2,3-dihydrobenzofuran-7-yl)-5-fluoro-6-(hydroxymethyl)-tetrahydro-2H-pyran-3,4-diol] |  |
|  |  |  |  | COc1c(Cc2ccc3c(c2)CCCO3)cc([C@@H]2O[C@H](CO)[C@@H](F)[C@H](O)[C@H]2O)c2c1CCO2 [Compound 126, (2S,3R,4R,5S,6R)-2-(5-(chroman-6-ylmethyl)-4-methoxy-2,3-dihydrobenzofuran-7-yl)-5-fluoro-6-(hydroxymethyl)-tetrahydro-2H-pyran-3,4-diol] | inhibition at 0.3 µM (human SGLT1): 21.7%; inhibition at 0.3 µM (human SGLT2): 16.8% |
|  |  | 63.2 | 78.4 | OC[C@H]1O[C@@H](c2cc(Cc3ccc4c(c3)SCCO4)c(Cl)c3c2OCC3)[C@H](O)[C@@H](O)[C@@H]1F [Compound 127] |  |
| 187 | 62 |  |  | COc1c(Cc2ccc3c(c2)SCCO3)cc([C@@H]2O[C@H](CO)[C@@H](F)[C@H](O)[C@H]2O)c2c1CCO2 [Compound 128, (2S,3R,4R,5S,6R)-2-(5-((2,3-dihydrobenzo[b][1,4]oxathiin-6-yl)methyl)-4-methoxy-2,3-dihydrobenzofuran-7-yl)-5-fluoro-6-(hydroxymethyl)-tetrahydro-2H-pyran-3,4-diol] |  |
| 176 | 7 |  |  | Cc1cc(O)c([C@@H]2O[C@H](CO)[C@@H](F)[C@H](O)[C@H]2O)cc1Cc1cc2c(s1)C(=O)CCO2 [Compound 129] |  |
|  |  | 44.8 | 81.6 | Cc1c(Cc2ccc3c(c2)CCCO3)cc([C@@H]2O[C@H](CO)[C@@H](F)[C@H](O)[C@H]2O)c2c1CCO2 [Compound 130] |  |
| 231 | 12 |  |  | Cc1c([C@@H]2O[C@H](CO)[C@@H](F)[C@H](O)[C@H]2O)cc(Cc2ccc3c(c2)SCCO3)c2c1CCO2 [Compound 131] |  |
| 135 | 23 |  |  | Cc1c(Cc2ccc3c(c2)SCCO3)cc([C@@H]2O[C@H](CO)[C@@H](F)[C@H](O)[C@H]2O)c2c1CCO2 [Compound 132] |  |
| 236 | 6 |  |  | OC[C@H]1O[C@@H](c2cc3c(c(Cc4ccc(OCF)cc4)c2)OCC3)[C@H](O)[C@@H](O)[C@@H]1F [Compound 133] |  |
| 254 | 12 |  |  | CCc1ccc(Cc2cc([C@@H]3O[C@H](CO)[C@@H](F)[C@H](O)[C@H]3O)cc3c2OCC3)cc1 [Compound 134] |  |
| 85 | 8 |  |  | CCc1ccc(Cc2cc([C@@H]3O[C@H](CO)[C@@H](F)[C@H](O)[C@H]3O)c(OC)c3c2OCC3)cc1 [Compound 135] |  |
